# Measured values reported in patent publication US20240165261A1, “MEANS AND METHOD FOR CYTOSOLIC DELIVERY” (Universiteit Gent, priority 2021, published 2024).
# Tested on: primary human T cells
# Assay: FD10 delivery in primary human T cells by flow cytometry
# Assay type: cell-based
# Conditions: human T cells with dex-NG and FD10, ROS scavenger added (FIG. 12a)
# Procedure: FIG. 8. […] Human T cells were isolated from peripheral blood mononuclear cells and expanded for several weeks. […] As a control, cells were treated with nucleofection (program E0-115, Lonza Nucleofector, white bars) (a) Quantitative analysis of FD10 delivery efficiency using flow cytometry. Cells were stained with a membrane exclusion dye (TO-PRO-3 iodide) staining dead cells. TO-PRO-3 iodide negative cells were gated for delivery efficiency analysis. (b) Analysis of cell viability, 4 h after treatment, using an ATP-based viability assay (CellTiter-Glo®). (c-d) Quantitative analysis of FD10 delivery efficiency using flow cytometry on TO-PRO-3 iodide negative cells. The yield is determined as percentage living cells (based on CellTiter-Glo® assay), multiplied by the percentage of FD10-positive cells. Data shown as the mean±SD of three independent experiments (n=3). Statistical significance is reported where relevant (ns p≥0.05, * p<0.05, ** p≤0.01, *** p≤0.001, **** p≤0.0001).
# Human T cells were seeded at 1×10^6 cells per well in a glass bottom 96-well plate (Greiner Bio-One GmbH, Vilvoorde, Belgium). […] Quantitative analysis of delivery efficiency was performed using flow cytometry on living (i.e. TO-PRO-3 negative) cells (CytoFLEX equipped with CytExpert software; Beckman Coulter, Krefeld, Germany). […]
compound,measurement,value
OCCS [β-mercaptoethanol],beneficial effect on cytosolic FD10 delivery as seen with NAC,could not be replicated
